The experiment relates to IL2 promoter. Put plainly: Human IL2 promoter reporter gene assay (RGA) in Jurkat cells. It is filed as cell-based. The settings on record: […], heading: IL2 reporter gene assay IC50, anti-CD28 mAb + PMA stimulation 5.5 h. Here is the method:
Human IL2 Promoter Reporter Gene Assay (RGA) in Jurkat Cells
The transfected Jurkat clone K22 290_H23 was propagated in RPMI 1640 supplemented with 10% heat inactivated fetal calf serum, 50 μM 2-mercaptoethanol and 1 mg/ml Geneticin. The cell concentration should not exceed 1×10e6/ml during culturing. The cells should not exceed passage 30. Prior to the assay the cells were washed and prepared to the concentration of 2×10e6 cells/ml.
Compound dilutions were made as 2×-concentrated solutions then diluted ½ by addition to cells. Two hundred and fifty μl of compound dilution and 250 μl of cells were mixed together in wells of a 96-deep well plate. Cells/compounds premix were incubated 30 min at 37° C. and 5% CO2 directly in the deep well plate.
After pre-incubation of cells with compounds, cells were stimulated with anti-CD28 mAb (clone 15E8) at 3 μg/ml+PMA at 1 μg/ml. Both co-stimulants were diluted in culture medium at a 10×-concentrated solution. 10 μl of co-stimulants were pipetted into the white 96-well plates and 100 μl of cell/compound mix was immediately added in duplicates. The cells were stimulated for 5.5 h at 37° C. and 5% CO2.
After cell stimulation, 50 μl of BriteLitePlus reagent (Perkin Elmer) was added to each well and the bioluminescence was measured with a Wallac EnVision reader (Perkin Elmer).
For `O=C(Nc1cnc(-n2nccn2)c(C(F)(F)F)c1)Nc1cnc2cc(Cl)nn2c1-c1ccco1` [Example 63, 1-(6-(2H-1,2,3-triazol-2-yl)-5-(trifluoromethyl)pyridin-3-yl)-3-(2-chloro-7-(furan-2-yl)pyrazolo[1,5-a]pyrimidin-6-yl)urea], the IC50 – broadly, the point on the concentration scale where inhibition reaches its midpoint – is 91 nM.

Regarding `COC[C@H](C)c1c(NC(=O)Nc2cnc(-n3nccn3)c(Cl)c2)cnc2cc(Cl)nn12` [Example 45, (R)-1-(5-chloro-6-(2H-1,2,3-triazol-2-yl)pyridin-3-yl)-3-(2-chloro-7-(1-methoxypropan-2-yl)pyrazolo[1,5-a]pyrimidin-6-yl)urea], the IC50 turned out to be 63 nM.

Turning to `CO[C@@H](C)c1c(NC(=O)Nc2cnc(-n3nccn3)c(Cl)c2)cnc2cc(C#N)nn12` [Example 96, (S)-1-(5-chloro-6-(2H-1,2,3-triazol-2-yl)pyridin-3-yl)-3-(2-cyano-7-(1-methoxyethyl)pyrazolo[1,5-a]pyrimidin-6-yl)urea], the IC50 was 52 nM.

As to `COCC1(c2c(NC(=O)Nc3ccnc(C(F)(F)F)c3)cnc3cc(Cl)nn23)CC1` [Example 77, 1-(2-chloro-7-(1-(methoxymethyl)cyclopropyl)pyrazolo[1,5-a]pyrimidin-6-yl)-3-(2-(trifluoromethyl)pyridin-4-yl)urea], the IC50 stood at 46 nM.

For the compound `COC[C@@H](C)c1c(NC(=O)Nc2cnc(-n3nccn3)c(C(F)(F)F)c2)cnc2cc(Cl)nn12` [Example 110, (S)-1-(6-(2H-1,2,3-triazol-2-yl)-5-(trifluoromethyl)pyridin-3-yl)-3-(2-chloro-7-(1-methoxypropan-2-yl)pyrazolo[1,5-a]pyrimidin-6-yl)urea], the IC50 was 41 nM.

As to `CO[C@H](C)CO[C@@H](C)c1c(NC(=O)Nc2cnc(-n3nccn3)c(Cl)c2)cnc2cc(Cl)nn12` [Example 85, 1-(5-chloro-6-(2H-1,2,3-triazol-2-yl)pyridin-3-yl)-3-(2-chloro-7-((S)-1-((R)-2 methoxypropoxy)ethyl)pyrazolo[1,5-a]pyrimidin-6-yl)urea], the IC50 is 68 nM.

As to `CO[C@@H](C)c1c(NC(=O)Nc2cnc(-n3nccn3)c(C(F)F)c2)cnc2cc(Cl)nn12` [Example 89, (S)-1-(2-chloro-7-(1-methoxyethyl)pyrazolo [1,5-a]pyrimidin-6-yl)-3-(5-(difluoromethyl)-6-(2H-1,2,3-triazol-2-yl)pyridin-3-yl)urea], the IC50 turned out to be 25 nM.

With `CC(C)OCc1c(NC(=O)Nc2cnc(-n3nccn3)c(Cl)c2)cnc2cc(Cl)nn12` [Example 61, 1-(5-chloro-6-(2H-1,2,3-triazol-2-yl)pyridin-3-yl)-3-(2-chloro-7-(isopropoxymethyl)pyrazolo[1,5-a]pyrimidin-6-yl)urea], the IC50 came out at 14 nM.

For the compound `CO[C@@H](c1c(NC(=O)Nc2cnc(-n3nccn3)c(Cl)c2)cnc2cc(Cl)nn12)C(C)C` [Example 5, (R)-1-(5-chloro-6-(2H-1,2,3-triazol-2-yl)pyridin-3-yl)-3-(2-chloro-7-(1-methoxy-2-methylpropyl)pyrazolo[1,5-a]pyrimidin-6-yl)urea], the IC50 turned out to be 52 nM.

In the case of `COCC1(c2c(NC(=O)Nc3ccnc(C(F)(F)F)c3)cnc3cc(Cl)nn23)CCC1` [Example 51, 1-(2-chloro-7-(1-(methoxymethyl)cyclobutyl)pyrazolo[1,5-a]pyrimidin-6-yl)-3-(2-(trifluoromethyl)pyridin-4-yl)urea], the IC50 was found to be 267 nM.

For the compound `COc1ncc(NC(=O)Nc2cnc3cc(Cl)nn3c2C(C)C)cc1Cl` [Example 18, 1-(5-chloro-6-methoxypyridin-3-yl)-3-(2-chloro-7-isopropylpyrazolo[1,5-a]pyrimidin-6-yl)urea], the IC50 stood at 245 nM.

Turning to `COc1ncc(NC(=O)Nc2cnc3cc(Cl)nn3c2[C@H](C)OC)cc1Cl` [Example 9, (S)-1-(5-chloro-6-methoxypyridin-3-yl)-3-(2-chloro-7-(1-methoxyethyl)pyrazolo [1,5-a]pyrimidin-6-yl)urea], the IC50 is 19 nM.

In the case of `COCC(OC)c1c(NC(=O)Nc2cnc(-n3nccn3)c(C(F)(F)F)c2)cnc2cc(Cl)nn12` (centres unmarked) [Example 108, 1-(6-(2H-1,2,3-triazol-2-yl)-5-(trifluoromethyl)pyridin-3-yl)-3-(2-chloro-7-(1,2-dimethoxyethyl)pyrazolo[1,5-a]pyrimidin-6-yl)urea], the IC50 amounted to 17 nM.

Turning to `CO[C@@H](C)c1c(NC(=O)Nc2ccnc(Cl)c2)cnc2cc(Cl)nn12` [Example 12, (S)-1-(2-chloro-7-(1-methoxyethyl)pyrazolo [1,5-a]pyrimidin-6-yl)-3-(2-chloropyridin-4-yl)urea], the IC50 turned out to be 39 nM.

Regarding `CN(C)C(=O)c1c(NC(=O)Nc2cnc(-n3nccn3)c(Cl)c2)cnc2cc(Cl)nn12` [Example 70, 2-chloro-6-(3-(5-chloro-6-(2H-1,2,3-triazol-2-yl)pyridin-3-yl)ureido)-N,N-dimethylpyrazolo[1,5-a]pyrimidine-7-carboxamide], the IC50 was 63 nM.

Turning to `COCCO[C@@H](C)c1c(NC(=O)Nc2ccnc(C(F)(F)F)c2)cnc2cc(Cl)nn12` [Example 41, (S)-1-(2-chloro-7-(1-(2-methoxyethoxy)ethyl)pyrazolo[1,5-a]pyrimidin-6-yl)-3-(2-(trifluoromethyl)pyridin-4-yl)urea], the IC50 was 82 nM.

Turning to `C[C@@H](O)c1c(NC(=O)Nc2cnc(-n3nccn3)c(C(F)(F)F)c2)cnc2cc(Cl)nn12` [Example 113, (R)-1-(6-(2H-1,2,3-triazol-2-yl)-5-(trifluoromethyl)pyridin-3-yl)-3-(2-chloro-7-(1-hydroxyethyl)pyrazolo[1,5a]pyrimidin-6-yl)urea], the IC50 was found to be 78 nM.

With `CO[C@@H](C)c1c(NC(=O)Nc2ccnc(C(F)F)c2)cnc2cc(Cl)nn12` [Example 92, (S)-1-(2-chloro-7-(1-methoxyethyl)pyrazolo [1,5-a]pyrimidin-6-yl)-3-(2-(difluoromethyl)pyridin-4-yl)urea], the IC50 was found to be 24 nM.

Consider `COCC(C)(OC)c1c(NC(=O)Nc2cnc(-n3nccn3)c(Cl)c2)cnc2cc(Cl)nn12` (centres unmarked) [Example 81, 1-(5-chloro-6-(2H-1,2,3-triazol-2-yl)pyridin-3-yl)-3-(2-chloro-7-(1,2-dimethoxypropan-2-yl)pyrazolo[1,5-a]pyrimidin-6-yl)urea], for which the IC50 was determined as 157 nM.

On to `CN1CCCC[C@H]1c1c(NC(=O)Nc2cnc(-n3nccn3)c(Cl)c2)cnc2cc(Cl)nn12` [Example 84, (S)-1-(5-chloro-6-(2H-1,2,3-triazol-2-yl)pyridin-3-yl)-3-(2-chloro-7-(1-methylpiperidin-2-yl)pyrazolo[1,5-a]pyrimidin-6-yl)urea], for which the IC50 was found to be 49 nM.

`CO[C@@H](C)c1c(NC(=O)Nc2ccnc(C(F)(F)F)c2)cnc2cc(C)nn12` [Example 6, (S)-1-(7-(1-methoxyethyl)-2-methylpyrazolo[1,5-a]pyrimidin-6-yl)-3-(2-(trifluoromethyl)pyridin-4-yl)urea]: the IC50 came out at 30 nM.

With `CO[C@H](C)c1c(NC(=O)Nc2ccnc(C(F)(F)F)c2)cnc2cc(Cl)nn12` [Example 47, (R)-1-(2-chloro-7-(1-methoxyethyl)pyrazolo [1,5-a]pyrimidin-6-yl)-3-(2-(trifluoromethyl)pyridin-4-yl)urea], the IC50 was determined as 94 nM.

`COCC1(c2c(NC(=O)Nc3ccnc(C(F)(F)F)c3)cnc3cc(C)nn23)CC1` [Example 79, 1-(7-(1-(methoxymethyl)cyclopropyl)-2-methylpyrazolo[1,5-a]pyrimidin-6-yl)-3-(2-(trifluoromethyl)pyridin-4-yl)urea]: the IC50 was 89 nM.

Take `CC(C)c1c(NC(=O)Nc2cc(C(F)(F)F)ncc2-n2nccn2)cnc2cc(Cl)nn12` [Example 112, 1-(5-(2H-1,2,3-triazol-2-yl)-2-(trifluoromethyl)pyridin-4-yl)-3-(2-chloro-7-isopropylpyrazolo[1,5-a]pyrimidin-6-yl)urea]: the IC50 was 58 nM.

Turning to `CO[C@@H](C)c1c(NC(=O)Nc2cc(Cl)cnc2OCCN(C)C)cnc2cc(Cl)nn12` [Example 99, (S)-1-(5-chloro-2-(2-(dimethylamino)ethoxy)pyridin-3-yl)-3-(2-chloro-7-(1-methoxyethyl)pyrazolo[1,5-a]pyrimidin-6-yl)urea], the IC50 came out at 54 nM.

Regarding `C[C@H](OCCN(C)C)c1c(NC(=O)Nc2cnc(-n3nccn3)c(Cl)c2)cnc2cc(Cl)nn12` [Example 82, (S)-1-(5-chloro-6-(2H-1,2,3-triazol-2-yl)pyridin-3-yl)-3-(2-chloro-7-(1-(2-(dimethylamino)ethoxy)ethyl)pyrazolo[1,5-a]pyrimidin-6-yl)urea], the IC50 was 16 nM.

Consider `CC1(c2c(NC(=O)Nc3ccnc(C(F)(F)F)c3)cnc3cc(Cl)nn23)CC1` [Example 17, 1-(2-chloro-7-(1-methylcyclopropyl)pyrazolo[1,5-a]pyrimidin-6-yl)-3-(2-(trifluoromethyl)pyridin-4-yl)urea], for which the half-maximal inhibitory concentration (IC50) was found to be 149 nM.

Turning to `Cc1c(NC(=O)Nc2cnc(-n3nccn3)c(Cl)c2)cnc2cc(Cl)nn12` [Example 62, 1-(5-chloro-6-(2H-1,2,3-triazol-2-yl)pyridin-3-yl)-3-(2-chloro-7-methylpyrazolo[1,5-a]pyrimidin-6-yl)urea], the IC50 amounted to 140 nM.

For `COCC1(c2c(NC(=O)Nc3cnc(-n4nccn4)c(Cl)c3)cnc3cc(Cl)nn23)CCCO1` (centres unmarked) [Example 91, 1-(5-chloro-6-(2H-1,2,3-triazol-2-yl)pyridin-3-yl)-3-(2-chloro-7-(2-(methoxymethyl)tetrahydrofuran-2-yl)pyrazolo[1,5-a]pyrimidin-6-yl)urea], the IC50 was 50 nM.

Source of the values: patent US10442808B2, “Pyrazolo pyrimidine derivatives and their use as MALT1 inhbitors” (NOVARTIS AG, priority 2014, dated 2019).
